Biological target: T1, His6-MoxR (Riemerella anatipestifer, UniProt E4TDR4)
T1 construct: gene RA0C_2065
Conditions: 37 °C, 1 h; ATP or His6-MoxR concentration varied

T1 sequence (E4TDR4 entry or part of it): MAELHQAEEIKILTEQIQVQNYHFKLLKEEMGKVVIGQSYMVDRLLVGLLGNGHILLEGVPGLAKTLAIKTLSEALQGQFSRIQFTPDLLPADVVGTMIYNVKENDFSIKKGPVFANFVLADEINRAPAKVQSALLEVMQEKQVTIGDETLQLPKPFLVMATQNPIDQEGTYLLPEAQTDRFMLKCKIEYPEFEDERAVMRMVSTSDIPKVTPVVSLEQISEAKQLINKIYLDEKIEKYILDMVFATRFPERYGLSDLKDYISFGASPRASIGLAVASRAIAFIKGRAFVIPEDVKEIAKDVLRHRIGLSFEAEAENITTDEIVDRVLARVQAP

Nc1ncnc2c1ncn2[C@@H]1O[C@H](COP(=O)(O)OP(=O)(O)OP(=O)(O)O)[C@@H](O)[C@H]1O [ATP]
phosphate release, molybdenum blue, absorbance at 660 nm: concentration of phosphate groups in each reaction system increased with higher amounts of His6-MoxR and ATP

— PMC11834572, “MoxR effects as an ATPase on anti-stress and pathogenicity of Riemerella anatipestifer” (Veterinary Research, 2025)
